Laboratory results reported in patent publication US11149031B2, “Substituted N-(3-fluoropropyl)-pyrrolidine compounds, processes for their preparation and therapeutic uses thereof” (SANOFI, priority 2016, dated 2021).
Where two headings read alike, the source gives them in different places.

Assays:
ERα in MCF7 cells = ERα in MCF7 cells (Homo sapiens (Human), UniProt P03372); experiment: Test C: estrogen receptor degradation activity, ERα in cell western assay in MCF7 cells; format: cell-based; details: for DC50: 4 hours post compound addition, ERα in cell western, read-out: Degradation IC50; for % Degradation at 3 μM: 4 hours, relative to fulvestrant
Outline: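 Steps: seed MCF7 in phenol red-free medium containing 5% charcoal-dextran stripped FBS; next day add compound, final 3–0.000018 μM; after 4 h fix with 5% formalin plus 0.1% Triton; stain ERα overnight, then secondary at 37 °C for 60 min with Syto-64 at 2 μM; scan green and red intensities.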

[1] = molecular target: His6-ERα298-554 Y537S mutant (ERα ligand-binding domain) (Homo sapiens (Human), UniProt P03372, Y537S); experiment: Test A: biochemical antagonist activity, LanthaScreen TR-FRET ERα coactivator assay, Y537S mutant; details: read-out: Antagonism Y537S IC50
Outline: (§1)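 His6-ERα LBD (aa 298–554), 0.5 nM, with Tb-anti-His6 antibody, 250 nM PGC1a peptide and 3 nM (or 10 nM) estradiol in pH 7.4 potassium phosphate/DTT buffer; incubated with compound overnight at room temperature. IC50 from 4-parameter logistic fit of TR-FRET 520:495 nm ratio.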

[2] = molecular target: His6-ERα298-554 WT (ERα ligand-binding domain) (Homo sapiens (Human), UniProt P03372); experiment: Test A: biochemical antagonist activity, LanthaScreen TR-FRET ERα coactivator assay, WT; details: read-out: Antagonism WT IC50
Outline: as §1

[3] = molecular target: His6-ERα298-554 D538G mutant (ERα ligand-binding domain) (Homo sapiens (Human), UniProt P03372, D538G); experiment: Test A: biochemical antagonist activity, LanthaScreen TR-FRET ERα coactivator assay, D538G mutant; details: read-out: Antagonism D538G IC50
Outline: as §1

[4] = test system: MCF7 cells (breast tumor cells) WT; experiment: Test B: cell proliferation/viability assay (CellTiter-Glo) on MCF7 WT; format: cell-based; details: 7 days of compound exposure
Outline: (§2)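 Compound exposure lasted 7 days (3-0.000001 μM final, 9 points) in phenol red-free MEM with 5% charcoal dextran-stripped FBS. The mutant lines grew without estradiol. Luminescent signal, minus medium-only background, was expressed as percent of untreated cells.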

[5] = test system: MCF7 cells expressing mutant estrogen receptor Asp 538 Gly; experiment: Test B: cell proliferation/viability assay (CellTiter-Glo) on MCF7 Asp 538 Gly mutant; format: cell-based; details: MCF7 cells expressing ER Asp 538 Gly mutant, 7 days of compound exposure, read-out: proliferation MCF7 D538G IC50
Outline: as §2

[6] = test system: MCF7 cells expressing mutant estrogen receptor Tyr 537 Ser; experiment: Test B: cell proliferation/viability assay (CellTiter-Glo) on MCF7 Tyr 537 Ser mutant; format: cell-based; details: MCF7 cells expressing ER Tyr 537 Ser mutant, 7 days of compound exposure, read-out: proliferation MCF7 Y537S IC50
Outline: as §2

[7] = asterisk (*): protocol using 10 nM estradiol

Sequence of ERα in MCF7 cells (P03372 whole entry): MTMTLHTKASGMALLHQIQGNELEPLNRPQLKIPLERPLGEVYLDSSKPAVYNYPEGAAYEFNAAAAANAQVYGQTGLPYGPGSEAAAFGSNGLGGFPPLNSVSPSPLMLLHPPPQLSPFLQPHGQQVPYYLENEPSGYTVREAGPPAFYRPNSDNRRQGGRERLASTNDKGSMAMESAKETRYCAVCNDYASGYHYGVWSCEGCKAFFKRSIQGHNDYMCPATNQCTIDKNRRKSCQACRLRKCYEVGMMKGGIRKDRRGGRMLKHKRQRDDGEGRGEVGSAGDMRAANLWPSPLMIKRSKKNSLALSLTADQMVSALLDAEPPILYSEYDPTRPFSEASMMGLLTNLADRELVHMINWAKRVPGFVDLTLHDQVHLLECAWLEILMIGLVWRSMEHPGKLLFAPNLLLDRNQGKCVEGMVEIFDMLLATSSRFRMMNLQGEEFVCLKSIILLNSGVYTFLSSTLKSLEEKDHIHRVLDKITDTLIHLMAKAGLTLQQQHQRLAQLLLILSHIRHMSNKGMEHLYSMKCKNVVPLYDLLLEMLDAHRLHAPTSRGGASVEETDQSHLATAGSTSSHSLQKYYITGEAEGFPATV
Sequence of His6-ERα298-554 D538G mutant (ERα ligand-binding domain) (P03372 298-554 D538G): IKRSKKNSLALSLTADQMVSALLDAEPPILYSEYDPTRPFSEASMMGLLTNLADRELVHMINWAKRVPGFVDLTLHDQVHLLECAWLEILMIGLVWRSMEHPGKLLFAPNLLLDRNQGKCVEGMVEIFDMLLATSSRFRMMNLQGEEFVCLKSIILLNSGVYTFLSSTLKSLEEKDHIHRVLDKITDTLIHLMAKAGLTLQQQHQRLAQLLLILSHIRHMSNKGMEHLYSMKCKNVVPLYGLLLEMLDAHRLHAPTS
Sequence of His6-ERα298-554 WT (ERα ligand-binding domain) (P03372 298-554): as the sequence (P03372 298-554 D538G) above, with G241D counted along it
Sequence of His6-ERα298-554 Y537S mutant (ERα ligand-binding domain) (P03372 298-554 Y537S): as the sequence (P03372 298-554 D538G) above, with Y240S, G241D counted along it

Row | Compound | DC50 (ERα in MCF7 cells) [nM] | % Degradation at 3 μM (ERα in MCF7 cells) [%] | IC50 ([1]; protocol with 3 nM estradiol) [nM] | IC50 ([2]; protocol with 3 nM estradiol) [nM] | IC50 ([3]; protocol with 3 nM estradiol) [nM] | IC50 ([4]; Homo sapiens, MCF7, 168 h) [nM] | IC50 ([5]; Homo sapiens, MCF7, 168 h) [nM] | IC50 ([6]; Homo sapiens, MCF7, 168 h) [nM] | IC50 [1, 7] [nM] | IC50 [2, 7] [nM] | IC50 [3, 7] [nM] | IC50 [4] [nM] | IC50 [5] [nM] | IC50 [6] [nM]
1 | Cc1ccc(C2=C(c3ccc(O[C@H]4CCN(CCCF)C4)cc3)c3ccc(O)cc3SCC2)c(F)c1 [Example 164, 4-(2-fluoro-4-methyl-phenyl)-5-[4-[(3S)-1-(3-fluoropropyl)pyrrolidin-3-yl]oxyphenyl]-2,3-dihydro-1-benzothiepin-8-ol] | 0.5 | 91 | 9 | 3 | 13 | 0.6 | 0.6 | 5 | – | – | – | – | – | –
2 | Oc1ccc2c(c1)SCCC(c1cnc3c(c1)CCN3)=C2c1ccc(O[C@H]2CCN(CCCF)C2)cc1 [Example 183, 4-(2,3-dihydro-1H-pyrrolo[2,3-b]pyridin-5-yl)-5-[4-[(3S)-1-(3-fluoropropyl)pyrrolidin-3-yl]oxyphenyl]-2,3-dihydro-1-benzothiepin-8-ol] | 1 | 83 | 70 | 7 | 122 | 1 | 5 | 73 | – | – | – | – | – | –
3 | CCOc1ccc(C2=C(c3ccc(O[C@H]4CCN(CCCF)C4)cc3)c3ccc(O)cc3SC2)c(F)c1F [Example 41, 3-(4-ethoxy-2,3-difluoro-phenyl)-4-[4-[(3S)-1-(3-fluoropropyl)pyrrolidin-3-yl]oxyphenyl]-2H-thiochromen-7-ol] | 1 | 85 | – | – | – | 0.9 | 1 | 4 | 407 | 27 | 740 | – | – | –
4 | Cc1c(O)ccc2c1OCCC(c1ccc3cc[nH]c3c1)=C2c1ccc(O[C@H]2CCN(CCCF)C2)cc1 [Example 129, 5-[4-[(3S)-1-(3-fluoropropyl)pyrrolidin-3-yl]oxyphenyl]-4-(1H-indol-6-yl)-9-methyl-2,3-dihydro-1-benzoxepin-8-ol] | 44 | 75 | 2680 | 502 | > 4000 | 245 | 456 | > 999 | – | – | – | – | – | –
5 | CS(=O)(=O)c1ccc(C2=C(c3ccc(O[C@H]4CCN(CCCF)C4)cc3)c3ccc(O)cc3SCC2)cc1 [Example 194, 5-[4-[(3S)-1-(3-fluoropropyl)pyrrolidin-3-yl]oxyphenyl]-4-(4-methylsulfonylphenyl)-2,3-dihydro-1-benzothiepin-8-ol] | 0.2 | 89 | – | – | – | 0.2 | 0.4 | 3 | 141 | 10 | 206 | – | – | –
6 | CC1(C)CNc2ccc(C3=C(c4ccc(O[C@H]5CCN(CCCF)C5)cc4)c4ccc(O)cc4SC3)cc21 [Example 73, 3-(3,3-dimethylindolin-5-yl)-4-[4-[(3S)-1-(3-fluoropropyl)pyrrolidin-3-yl]oxyphenyl]-2H-thiochromen-7-ol] | 6 | 86 | – | – | – | 95 | 119 | 377 | > 4000 | 1110 | > 4000 | – | – | –
7 | O=C1COc2ccc(C3=C(c4ccc(O[C@H]5CCN(CCCF)C5)cc4)c4ccc(O)cc4SC3)cc2N1 [Example 38, 6-[4-[4-[(3S)-1-(3-fluoropropyl)pyrrolidin-3-yl]oxyphenyl]-7-hydroxy-2H-thiochromen-3-yl]-4H-1,4-benzoxazin-3-one] | 12 | 86 | – | – | – | 12 | 16 | > 999 | 3710 | 604 | > 4000 | – | – | –
8 | CC1(C)Cc2cc(C3=C(c4ccc(O[C@H]5CCN(CCCF)C5)cc4)c4ccc(O)cc4SCC3)ccc2O1 [Example 201, 4-(2,2-dimethyl-3H-benzofuran-5-yl)-5-[4-[(3S)-1-(3-fluoropropyl)pyrrolidin-3-yl]oxyphenyl]-2,3-dihydro-1-benzothiepin-8-ol] | 0.8 | 85 | – | – | – | 0.2 | 1 | 8 | 15 | 1 | 21 | – | – | –
9 | [O-][S+]1CCC(c2ccc(OC(F)(F)F)cc2)=C(c2ccc(O[C@H]3CCN(CCCF)C3)cc2)c2ccc(O)cc21 (single isomer, unassigned) [Example 227] | 4 | 90 | – | – | – | – | – | – | 3500 | 392 | 3330 | 6 | 9 | 134
10 | Oc1ccc2c(c1)OCCC(c1ccc3c(c1)CCO3)=C2c1ccc(O[C@H]2CCN(CCCF)C2)cc1 [Example 151, 4-(2,3-dihydrobenzofuran-5-yl)-5-[4-[(3S)-1-(3-fluoropropyl)pyrrolidin-3-yl]oxyphenyl]-2,3-dihydro-1-benzoxepin-8-ol] | 0.4 | 90 | – | – | – | 0.3 | 1 | 7 | 68 | 6 | 88 | – | – | –
11 | CCOc1ccc(C2=C(c3ccc(O[C@H]4CCN(CCCF)C4)cc3)c3ccc(O)cc3SC2)c(C)c1 [Example 39, 3-(4-ethoxy-2-methyl-phenyl)-4-[4-[(3S)-1-(3-fluoropropyl)pyrrolidin-3-yl]oxyphenyl]-2H-thiochromen-7-ol] | 0.7 | 86 | – | – | – | 0.4 | 0.5 | 2 | 127 | 9 | 221 | – | – | –
12 | COc1ccc(C2=C(c3ccc(O[C@H]4CCN(CCCF)C4)cc3)c3ccc(O)cc3SC2)c(F)c1 [Example 24, 3-(2-fluoro-4-methoxy-phenyl)-4-[4-[(3S)-1-(3-fluoropropyl)pyrrolidin-3-yl]oxyphenyl]-2H-thiochromen-7-ol] | 0.2 | 91 | – | – | – | 0.3 | 0.9 | 6 | 44 | 5 | 80 | – | – | –
13 | Cc1ccc(C2=C(c3ccc(O[C@H]4CCN(CCCF)C4)nc3)c3ccc(O)cc3SCC2)c(Cl)c1 [Example 206, 4-(2-chloro-4-methyl-phenyl)-5-[6-[(3S)-1-(3-fluoropropyl)pyrrolidin-3-yl]oxy-3-pyridyl]-2,3-dihydro-1-benzothiepin-8-ol] | 0.4 | 85 | – | – | – | 0.3 | 0.7 | 4 | 9 | 0.7 | 13 | – | – | –
14 | COc1ccc(C2=C(c3ccc(O[C@H]4CCN(CCCF)C4)cc3)c3ccc(O)cc3SC2)c(F)n1 [Example 45, 3-(2-fluoro-6-methoxy-3-pyridyl)-4-[4-[(3S)-1-(3-fluoropropyl)pyrrolidin-3-yl]oxyphenyl]-2H-thiochromen-7-ol] | 0.2 | 87 | – | – | – | 0.1 | 0.6 | 2 | 14 | 1 | 34 | – | – | –
15 | Oc1ccc2c(c1)SCCC(c1cccc3[nH]ccc13)=C2c1ccc(O[C@H]2CCN(CCCF)C2)cc1 [Example 178, 5-[4-[(3S)-1-(3-fluoropropyl)pyrrolidin-3-yl]oxyphenyl]-4-(1H-indol-4-yl)-2,3-dihydro-1-benzothiepin-8-ol] | 0.4 | 87 | 7 | 2 | 10 | 0.5 | 2 | 16 | – | – | – | – | – | –
16 | CC1Cc2c([nH]c3ccccc23)C(c2c(F)cc(O[C@H]3CCN(CCCF)C3)cc2F)N1CC(C)(C)F (single isomer, unassigned) [Example 256] | 0.2 | 91 | – | – | – | – | – | – | 101 | 6 | 120 | 0.1 | 0.7 | 2
